Measurements from article PMC6172315, “Relative Selectivity of Plant Cardenolides for Na^+/K^+-ATPases From the Monarch Butterfly and Non-resistant Insects” (Frontiers in Plant Science, 2018).
“Also recorded” adds a separate entry of the source. Read-outs that look alike come from different tables or passages of the source.

Experiments:
[1] = biological target: S. gregaria-Na^+/K^+-ATPase (Schistocerca gregaria, UniProt A0A8E5JSN5); assay type: biochemical
Experimental: (§1) Danaus plexippus was caught in the field or purchased; E. core and S. gregaria were obtained commercially, with additional E. core from a laboratory colony. […] Briefly, brains dissected from butterflies stored at -80°C or recta from locusts were homogenized (individually or pooled) with an all glass grinder (Wheaton) in deionized water, frozen at -80°C, freeze-dried, and stored frozen until use. For in vitro assays, lyophilisates were dissolved in water, sonicated in an ultrasonic bath, and centrifuged to remove undissolved matter. All cardiac glycosides were tested at least with three biological replicates of Na^+/K^+-ATPase (i.e., Na^+/K^+-ATPase from genetically different specimens or pools of specimens).
(§2) Means of duplicate determinations (i.e., technical replicates) were used as data points. In consequence, each data point of a dose–response curve is the mean of at least three biological replicates based on two technical replicates, each. […] Here, technical replicates collected on the same 96-well plate were averaged and used as data points.
(§3) Stock solutions of cardiac glycosides, as well as pregnane glycosides, were prepared from crystalline compounds in DMSO. While concentrations of all other compounds were based on mass, calactin, and calotropin stock solutions were adjusted with HPLC using digitoxin as a reference.
(§4) Pairwise statistical comparisons of dose-response curves were carried out using the “compare datasets” option in OriginPro, which is based on an F-Test evaluating if the two curves are identical. Correlation analyses using log10-transformed IC50 values was also carried out with OriginPro. […] To analyze relative selectivity without a reference, we also plotted the fold differences between the IC50 values of individual cardenolides for non-adapted and adapted insect Na^+/K^+-ATPase and compared them to mammalian (lamb) Na^+/K^+-ATPase (Figure 2).

[2] = set-up: method as in Imai et al., 1965; details: ref Imai et al., 1965; cited from earlier work
E. core-Na^+/K^+-ATPase = E. core-Na^+/K^+-ATPase (Euploea core, UniProt A0A5C0C9F5); experiment: In vitro inhibition assay of E. core Na+/K+-ATPase (phosphate release); assay type: biochemical; details: for inhibition of E. core Na^+/K^+-ATPase compared to ouabain: EC, F-test comparison of entire dose-response curves with ouabain; for IC50: read-out: IC50 E. core- Na^+/K^+-ATPase, Na+/K+-ATPase extracted from butterfly brains
Experimental: as §1, §2, §3, §4

[3] = biological target: D. plexippus-Na^+/K^+-ATPase (Danaus plexippus, UniProt K0G7C4); experiment: In vitro inhibition assay of D. plexippus Na+/K+-ATPase (phosphate release); assay type: biochemical; details: for inhibition of D. plexippus Na^+/K^+-ATPase compared to ouabain: DP, F-test comparison of entire dose-response curves with ouabain; for fold difference between IC50 values, non-adapted (E. core/S. gregaria) vs adapted (D. plexippus) insect Na^+/K^+-ATPase: Figure 2, last number, S. gregaria values used for ouabain and digitoxigenin; for IC50: read-out: IC50 D. plexippus- Na^+/K^+-ATPase, Na+/K+-ATPase extracted from butterfly brains
Experimental: as §1, §2, §3, §4

porcine Na^+/K^+-ATPase = experiment: In vitro inhibition assay of porcine Na+/K+-ATPase; assay type: biochemical, pig; details: for inhibition of porcine Na^+/K^+-ATPase compared to ouabain: F-test comparison of dose-response curves with ouabain; for IC50: purified from pig brain, 0.01 U/ml in the assay
Experimental: Lyophilized Na^+/K^+-ATPase was dissolved in water to a concentration of 1 U/ml, stored at -80°C in single-use aliquots and diluted with H2O to 0.05 U/ml for use in the in vitro assay (final concentration in the assay 0.01 U/ml).
as §4

lamb Na^+/K^+-ATPase = experiment: Fold differences of IC50 between lamb and insect Na+/K+-ATPases; assay type: biochemical; details: lamb IC50 inferred from ref Paula et al., 2005; for fold difference between IC50 values, lamb vs adapted insect (D. plexippus) Na^+/K^+-ATPase: Figure 2, first number; for fold difference between IC50 values, lamb vs non-adapted insect (E. core/S. gregaria) Na^+/K^+-ATPase: Figure 2, second number
Experimental: as §4

physchem = details: for solubility: aqueous with cosolvent or surfactant or cyclodextrin, kinetic from dmso stock
Experimental: as §3

[4] = Na+/K+-ATPase extracted from locust recta; read-out: IC50 S. gregaria- Na^+/K^+-ATPase
[5] = SG; F-test comparison of entire dose-response curves with ouabain
[6] = read-out: IC50 S. gregaria- Na^+/K^+-ATPase; Na+/K+-ATPase extracted from locust recta
[7] = both dissolved in 25% DMSO, F-test of curves

Chain of D. plexippus-Na^+/K^+-ATPase (K0G7C4 1-1009): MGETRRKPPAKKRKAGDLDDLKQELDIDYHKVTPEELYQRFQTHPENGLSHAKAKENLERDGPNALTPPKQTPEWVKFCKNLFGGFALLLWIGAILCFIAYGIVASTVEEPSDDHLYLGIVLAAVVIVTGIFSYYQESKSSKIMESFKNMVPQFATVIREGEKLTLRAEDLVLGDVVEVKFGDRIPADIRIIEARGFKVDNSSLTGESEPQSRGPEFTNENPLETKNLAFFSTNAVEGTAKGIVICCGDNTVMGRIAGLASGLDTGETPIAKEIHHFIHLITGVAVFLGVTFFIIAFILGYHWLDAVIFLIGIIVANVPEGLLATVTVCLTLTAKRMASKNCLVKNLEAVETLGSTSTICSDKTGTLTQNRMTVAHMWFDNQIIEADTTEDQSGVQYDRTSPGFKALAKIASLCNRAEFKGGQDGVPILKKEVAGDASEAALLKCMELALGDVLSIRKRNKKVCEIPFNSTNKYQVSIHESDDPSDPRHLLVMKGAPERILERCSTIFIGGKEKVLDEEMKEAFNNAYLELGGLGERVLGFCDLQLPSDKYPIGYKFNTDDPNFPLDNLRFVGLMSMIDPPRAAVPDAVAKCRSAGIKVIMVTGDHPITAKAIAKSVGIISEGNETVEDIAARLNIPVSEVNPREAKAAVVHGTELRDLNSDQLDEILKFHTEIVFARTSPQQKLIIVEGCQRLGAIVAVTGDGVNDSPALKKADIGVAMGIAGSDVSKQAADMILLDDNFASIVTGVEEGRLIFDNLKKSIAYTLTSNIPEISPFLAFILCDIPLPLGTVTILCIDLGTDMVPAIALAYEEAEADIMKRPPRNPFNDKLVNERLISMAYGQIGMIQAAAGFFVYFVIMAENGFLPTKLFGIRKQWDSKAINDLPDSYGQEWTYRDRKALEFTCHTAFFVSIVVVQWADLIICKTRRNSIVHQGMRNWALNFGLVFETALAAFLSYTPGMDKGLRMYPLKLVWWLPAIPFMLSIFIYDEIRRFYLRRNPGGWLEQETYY
Chain of E. core-Na^+/K^+-ATPase (A0A5C0C9F5 1-1013): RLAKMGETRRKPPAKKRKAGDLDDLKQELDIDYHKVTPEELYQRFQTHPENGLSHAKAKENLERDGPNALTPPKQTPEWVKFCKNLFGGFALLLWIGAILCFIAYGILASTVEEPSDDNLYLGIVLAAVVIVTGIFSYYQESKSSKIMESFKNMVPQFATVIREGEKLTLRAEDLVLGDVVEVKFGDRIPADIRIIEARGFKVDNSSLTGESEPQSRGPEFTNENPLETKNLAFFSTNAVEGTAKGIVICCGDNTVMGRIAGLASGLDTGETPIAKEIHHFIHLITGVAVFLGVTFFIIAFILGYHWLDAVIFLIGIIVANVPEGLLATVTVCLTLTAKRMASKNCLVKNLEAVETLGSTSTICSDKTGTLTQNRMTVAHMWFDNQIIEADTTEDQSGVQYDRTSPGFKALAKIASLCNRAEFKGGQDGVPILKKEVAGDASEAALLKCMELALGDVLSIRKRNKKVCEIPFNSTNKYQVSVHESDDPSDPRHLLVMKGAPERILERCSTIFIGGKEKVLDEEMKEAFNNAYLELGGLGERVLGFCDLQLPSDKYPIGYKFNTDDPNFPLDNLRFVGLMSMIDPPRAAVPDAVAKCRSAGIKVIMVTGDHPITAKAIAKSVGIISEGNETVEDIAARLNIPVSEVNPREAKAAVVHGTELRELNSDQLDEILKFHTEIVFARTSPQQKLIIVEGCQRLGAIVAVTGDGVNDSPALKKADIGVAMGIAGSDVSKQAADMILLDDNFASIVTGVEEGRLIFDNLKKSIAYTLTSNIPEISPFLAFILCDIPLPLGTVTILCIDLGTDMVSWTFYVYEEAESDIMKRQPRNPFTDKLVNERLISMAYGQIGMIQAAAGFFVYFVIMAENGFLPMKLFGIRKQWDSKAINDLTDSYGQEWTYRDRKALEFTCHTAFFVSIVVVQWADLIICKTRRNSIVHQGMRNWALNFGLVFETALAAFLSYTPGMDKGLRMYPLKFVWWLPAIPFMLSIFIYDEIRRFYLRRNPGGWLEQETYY
Chain of S. gregaria-Na^+/K^+-ATPase (A0A8E5JSN5 1-1039): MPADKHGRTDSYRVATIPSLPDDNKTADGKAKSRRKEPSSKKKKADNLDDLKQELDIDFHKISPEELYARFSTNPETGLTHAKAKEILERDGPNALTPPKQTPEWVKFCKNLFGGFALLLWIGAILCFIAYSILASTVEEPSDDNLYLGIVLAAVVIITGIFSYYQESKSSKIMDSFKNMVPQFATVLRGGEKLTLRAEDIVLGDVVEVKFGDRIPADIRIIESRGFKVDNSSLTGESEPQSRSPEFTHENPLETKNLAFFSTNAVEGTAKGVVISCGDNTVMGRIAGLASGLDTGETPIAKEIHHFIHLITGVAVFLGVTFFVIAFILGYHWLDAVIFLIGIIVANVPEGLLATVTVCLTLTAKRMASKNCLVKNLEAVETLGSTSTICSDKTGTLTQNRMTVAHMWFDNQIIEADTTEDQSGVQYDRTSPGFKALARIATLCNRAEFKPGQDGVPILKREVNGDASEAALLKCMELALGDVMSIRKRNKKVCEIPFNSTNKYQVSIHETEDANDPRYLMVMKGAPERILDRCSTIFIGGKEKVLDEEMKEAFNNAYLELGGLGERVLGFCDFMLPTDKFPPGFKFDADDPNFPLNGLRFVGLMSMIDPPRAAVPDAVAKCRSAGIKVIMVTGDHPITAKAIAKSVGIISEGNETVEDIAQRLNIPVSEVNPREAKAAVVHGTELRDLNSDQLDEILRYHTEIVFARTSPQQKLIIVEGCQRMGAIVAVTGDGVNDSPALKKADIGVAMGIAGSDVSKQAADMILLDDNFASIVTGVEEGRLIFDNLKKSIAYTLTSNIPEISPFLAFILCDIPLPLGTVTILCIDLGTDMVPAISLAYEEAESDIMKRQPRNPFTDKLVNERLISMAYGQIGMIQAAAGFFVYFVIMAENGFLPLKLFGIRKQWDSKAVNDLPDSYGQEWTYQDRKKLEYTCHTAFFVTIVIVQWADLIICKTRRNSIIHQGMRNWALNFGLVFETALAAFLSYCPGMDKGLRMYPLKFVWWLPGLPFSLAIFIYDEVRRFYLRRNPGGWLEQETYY

CO[C@@H]1C[C@H](O[C@H]2CC[C@@]3(C)[C@H](CC[C@@]45O[C@@]46CC[C@H](C4=CC(=O)OC4)[C@@]6(C)CC[C@H]35)C2)O[C@H](C)[C@@H]1O [adynerin]
inhibition of S. gregaria-Na^+/K^+-ATPase (in words) ([1]; Supplementary Figure 2): lack of inhibition; also recorded: failed to inhibit
cardiotonic activity in vertebrates [2]: lack cardiotonic activity

C[C@]12CC[C@H](O[C@@H]3O[C@H](CO)[C@@H](O)[C@H](O)[C@H]3O)C[C@@H]1CC[C@@H]1[C@@H]2CC[C@]2(C)[C@@H](C3=CC(=O)OC3)CC[C@]12O [desglucouzarin]
inhibition of E. core Na^+/K^+-ATPase compared to ouabain (E. core-Na^+/K^+-ATPase): nearly the same inhibitory effect as ouabain
IC50 (E. core-Na^+/K^+-ATPase): 0.62 µM
inhibition of D. plexippus Na^+/K^+-ATPase compared to ouabain [3]: strongly inhibitory effect; also recorded: > ouabain; F2,7 = 455.90, p < 0.001
fold difference between IC50 values, non-adapted (E. core/S. gregaria) vs adapted (D. plexippus) insect Na^+/K^+-ATPase [3]: 10 x
IC50 [3]: 6.42 µM
inhibition of porcine Na^+/K^+-ATPase compared to ouabain (porcine Na^+/K^+-ATPase): more strongly than ouabain
IC50 (porcine Na^+/K^+-ATPase): 0.268 µM

C[C@]12CC[C@H](O)C[C@H]1CC[C@@H]1[C@@H]2CC[C@]2(C)[C@@H](C3=CC(=O)OC3)[C@@H](O)C[C@]12O [gitoxigenin]
IC50 [1, 4]: 37.8 µM
inhibition of S. gregaria Na^+/K^+-ATPase compared to ouabain [1, 5]: much lower extent compared to ouabain
fold difference between IC50 values, non-adapted (E. core/S. gregaria) vs adapted (D. plexippus) insect Na^+/K^+-ATPase [3]: 7 x
IC50 [3]: 256 µM
fold difference between IC50 values, lamb vs adapted insect (D. plexippus) Na^+/K^+-ATPase (lamb Na^+/K^+-ATPase): 1633 x
fold difference between IC50 values, lamb vs non-adapted insect (E. core/S. gregaria) Na^+/K^+-ATPase (lamb Na^+/K^+-ATPase): 241 x

CC(=O)O[C@H]1C[C@H](O[C@H]2[C@@H](O)C[C@H](O[C@H]3[C@@H](O)C[C@H](O[C@H]4CC[C@@]5(C)[C@H](CC[C@@H]6[C@@H]5C[C@@H](O)[C@]5(C)[C@@H](C7=CC(=O)OC7)CC[C@]65O)C4)O[C@@H]3C)O[C@@H]2C)O[C@H](C)[C@H]1O[C@@H]1O[C@H](CO)[C@@H](O)[C@H](O)[C@H]1O [lanatoside C, reference compound]
IC50 [1, 4]: 12.4 µM
inhibition of S. gregaria Na^+/K^+-ATPase compared to ouabain [1, 5]: < ouabain; F2,6 = 82.96, p < 0.001
inhibition of D. plexippus Na^+/K^+-ATPase compared to ouabain [3]: < ouabain; F2,6 = 17.23, p = 0.003
fold difference between IC50 values, non-adapted (E. core/S. gregaria) vs adapted (D. plexippus) insect Na^+/K^+-ATPase [3]: 52 x
IC50 [3]: 644 µM
fold difference between IC50 values, lamb vs adapted insect (D. plexippus) Na^+/K^+-ATPase (lamb Na^+/K^+-ATPase): 1564 x
fold difference between IC50 values, lamb vs non-adapted insect (E. core/S. gregaria) Na^+/K^+-ATPase (lamb Na^+/K^+-ATPase): 30 x

CO[C@H]1C[C@H](O[C@H]2CC[C@@]3(C)[C@H](CC[C@@H]4[C@@H]3CC[C@]3(C)[C@@H](C5=CC(=O)OC5)[C@@H](OC(C)=O)C[C@]43O)C2)O[C@@H](C)[C@@H]1O [oleandrin]
inhibition of S. gregaria Na^+/K^+-ATPase compared to ouabain [1, 5]: = ouabain; F2,6 = 2.24, p = 0.19
IC50 [1, 6]: 0.834 µM
inhibition of D. plexippus Na^+/K^+-ATPase compared to ouabain [3]: > ouabain; F2,6 = 252.64, p < 0.001
IC50 [3]: 3.68 µM
solubility (physchem): < 100 µM

CC12CC(O)C3C(CCC4(O)CC(O)CC(O)C34CO)C1(O)CCC2C1=CC(=O)OC1 (centres unmarked) [ouabagenin]
IC50 [1, 4]: 20.4 µM
inhibition of S. gregaria Na^+/K^+-ATPase compared to ouabain [1, 5]: < ouabain; F2,6 = 201.2, p < 0.001
inhibition of D. plexippus Na^+/K^+-ATPase compared to ouabain [3]: < ouabain; F2,6 = 80.0, p < 0.001
fold difference between IC50 values, non-adapted (E. core/S. gregaria) vs adapted (D. plexippus) insect Na^+/K^+-ATPase [3]: 41 x
IC50 [3]: 841 µM
fold difference between IC50 values, lamb vs adapted insect (D. plexippus) Na^+/K^+-ATPase (lamb Na^+/K^+-ATPase): 1821 x
fold difference between IC50 values, lamb vs non-adapted insect (E. core/S. gregaria) Na^+/K^+-ATPase (lamb Na^+/K^+-ATPase): 44 x

C[C@@H]1O[C@@H](O[C@H]2C[C@@H](O)[C@]3(CO)[C@H]4[C@H](O)C[C@]5(C)[C@@H](C6=CC(=O)OC6)CC[C@]5(O)[C@@H]4CC[C@]3(O)C2)[C@H](O)[C@H](O)[C@H]1O [ouabain, reference compound]
IC50 [1, 6]: 0.997 µM
IC50 (E. core-Na^+/K^+-ATPase): 1.03 µM
IC50 [3]: 94 µM
IC50 (porcine Na^+/K^+-ATPase): 0.486 µM

CC12CCC(O)CC1CCC1C2CCC2(C)C(C3=CC(=O)OC3)CCC12O (centres unmarked) [uzarigenin]
inhibition of E. core Na^+/K^+-ATPase compared to ouabain (E. core-Na^+/K^+-ATPase): < ouabain; F2,6 = 53.30, p < 0.001
inhibition of E. core Na^+/K^+-ATPase compared to 5β equivalent digitoxigenin (E. core-Na^+/K^+-ATPase; [7]): no difference
IC50 (E. core-Na^+/K^+-ATPase): 4.58 µM
inhibition of D. plexippus Na^+/K^+-ATPase compared to ouabain [3]: > ouabain; F2,6 = 5.73, p = 0.04
inhibition of D. plexippus Na^+/K^+-ATPase compared to 5β equivalent digitoxigenin [3, 7]: no difference
IC50 [3]: 16 µM
solubility compared to 5-β-isomer digitoxigenin (physchem; ambient conditions): at least three to four times lower; also recorded: strongly reduced
solubility (physchem): < 100 µM

C[C@]12CC[C@H](O[C@@H]3O[C@H](CO[C@@H]4O[C@H](CO)[C@@H](O)[C@H](O)[C@H]4O)[C@@H](O)[C@H](O)[C@H]3O)C[C@@H]1CC[C@@H]1[C@@H]2CC[C@]2(C)[C@@H](C3=CC(=O)OC3)CC[C@]12O [uzarin]
inhibition of E. core Na^+/K^+-ATPase compared to ouabain (E. core-Na^+/K^+-ATPase): far weaker inhibition than ouabain; also recorded: < ouabain; F2,7 = 39.97, p < 0.001
IC50 (E. core-Na^+/K^+-ATPase): 2.91 µM
inhibition of D. plexippus Na^+/K^+-ATPase compared to ouabain [3]: substantially stronger inhibition than ouabain; also recorded: > ouabain; F2,7 = 70.04, p < 0.001
fold difference between IC50 values, non-adapted (E. core/S. gregaria) vs adapted (D. plexippus) insect Na^+/K^+-ATPase [3]: 6 x
IC50 [3]: 18.8 µM
inhibition of porcine Na^+/K^+-ATPase compared to ouabain (porcine Na^+/K^+-ATPase): not different from the effect of ouabain
IC50 (porcine Na^+/K^+-ATPase): 0.452 µM
